Where two headings read alike, the source gives them in different places.
System: cancer cells
Experiment: MTS cell growth inhibition assay (72 hours)
Type: cell-based
Experimental: Cells were maintained at 37° C., 5% CO2 in DMEM media supplemented with 1% fetal bovine serum, penicillin/streptomycin and fungizone (Invitrogen). Cells were seeded into 96-well tissue culture plates at 3000 per well and cultured at 37° C. for 18 hours. Test compounds were dissolved and diluted to 300× in DMSO then further diluted 1:40 in DMEM before addition to cells (1:7.5 dilution). Cells were incubated with test compounds for 72 hours followed by incubation with tetrazolium compound (3-(4,5-dimethylthiazol-2-yl)-5-(3-carboxymethoxyphenyl)-2-(4-sulfophenyl)-2H-tetrazolium, inner salt; MTS) and the electron coupling reagent, phenazine methosulfate (PMS) for 4 hours. […] The ability of compounds to inhibit cell growth in this assay is correlated with the reduction of dehydrogenase enzyme activity found in metabolically active cells. The measurement of the absorbance of the formazan was assessed using an ENVISION™ (Perkin Elmer) microplate reader at 492 nm. The calculated IC50 value is the concentration of the test compound that causes a 50% decrease in the absorbance. […] A=>79% inhibition, B=>50 to 79% inhibition, C=<50% inhibition.

[1] = Homo sapiens, DLD-1, 72 h, DLD-1 cells, read-out: DLD-1 MTS 72 hr at 10 μM
[2] = Homo sapiens, KATO III, 72 h, KATO III cells, read-out: KATO III MTS 72 hr at 10 μM
[3] = Homo sapiens, MDA-MB-231, 72 h, MDA-MB-231 cells, read-out: MDA-MB-231 MTS 72 hr at 10 μM
[4] = Homo sapiens, NCI-H1299, 72 h, NCI-H1299 cells, read-out: NCI-H1299 MTS 72 hr at 10 μM
[5] = PaCa-2, 72 h, PACA-2 cells, read-out: PACA-2 MTS 72 hr at 10 μM

Row | Structure (SMILES) | inhibition at 10 µM [1] | inhibition at 10 µM [2] | inhibition at 10 µM [3] | inhibition at 10 µM [4] | inhibition at 10 µM [5]
1 | COc1ccccc1Oc1cccc(S(=O)(=O)N2CC(Nc3nc(N)nc4[nH]ncc34)Cc3ccccc32)c1 (stereo not shown) [Compound 77, N4-(1-(3-(2-methoxyphenoxy)phenylsulfonyl)-1,2,3,4-tetrahydroquinolin-3-yl)-1H-pyrazolo[3,4-d]pyrimidine-4,6-diamine] | < 50% | 50 to 79% | < 50% | < 50% | < 50%
2 | Nc1nc(NC2CCN(S(=O)(=O)c3ccc(F)cc3)c3ccccc3C2)c2cn[nH]c2n1 (stereo not shown) [Compound 183, N4-{1-[(4-fluorophenyl)sulfonyl]-2,3,4,5-tetrahydro-1H-1-benzazepin-4-yl}-1H-pyrazolo[3,4-d]pyrimidine-4,6-diamine] | < 50% | < 50% | < 50% | < 50% | < 50%
3 | Cc1ccc(Cl)c(NC(=O)Nc2cccc(S(=O)(=O)N3CC(Nc4nc(N)nc5[nH]ncc45)Cc4ccccc43)c2)c1 (stereo not shown) [Compound 218, 1-[3-({3-[(6-amino-1H-pyrazolo[3,4-d]pyrimidin-4-yl)amino]-3,4-dihydroquinolin-1(2H)-yl}sulfonyl)phenyl]-3-(2-chloro-5-methylphenyl)urea] | > 79% | > 79% | > 79% | > 79% | > 79%
4 | Cc1cccc(S(=O)(=O)N2CCC(Nc3nc(N)nc4[nH]ncc34)Cc3ccccc32)c1 (stereo not shown) [Compound 168, N4-{1-[(3-methylphenyl)sulfonyl]-2,3,4,5-tetrahydro-1H-1-benzazepin-4-yl}-1H-pyrazolo[3,4-d]pyrimidine-4,6-diamine] | < 50% | < 50% | < 50% | < 50% | < 50%
5 | Nc1nc(NC2Cc3ccccc3N(S(=O)(=O)c3ccc(NC(=O)Nc4ccc5c(c4)CCC5)cc3)C2)c2cn[nH]c2n1 (stereo not shown) [Compound 193, 1-[4-({3-[(6-amino-1H-pyrazolo[3,4-d]pyrimidin-4-yl)amino]-3,4-dihydroquinolin-1(2H)-yl}sulfonyl)phenyl]-3-(2,3-dihydro-1H-inden-5-yl)urea] | 50 to 79% | > 79% | 50 to 79% | > 79% | > 79%
6 | Nc1nc(NC2Cc3ccccc3N(Cc3c(F)cccc3F)C2)c2cn[nH]c2n1 (stereo not shown) [Compound 150, N4-[1-(2,6-difluorobenzyl)-1,2,3,4-tetrahydroquinolin-3-yl]-1H-pyrazolo[3,4-d]pyrimidine-4,6-diamine] | > 79% | 50 to 79% | < 50% | < 50% | > 79%
7 | Nc1nc(NC2Cc3ccccc3N(Cc3ccc(-c4cccs4)cc3)C2)c2cn[nH]c2n1 (stereo not shown) [Compound 136, N4-{1-[4-(2-thienyl)benzyl]-1,2,3,4-tetrahydroquinolin-3-yl}-1H-pyrazolo[3,4-d]pyrimidine-4,6-diamine] | > 79% | > 79% | < 50% | < 50% | < 50%
8 | Nc1nc(NC2Cc3ccccc3N(C(=O)C3CCCCC3)C2)c2cn[nH]c2n1 (stereo not shown) [Compound 84, (3-(6-amino-1H-pyrazolo[3,4-d]pyrimidin-4-ylamino)-3,4-dihydroquinolin-1(2H)-yl)(cyclohexyl)methanone] | < 50% | < 50% | < 50% | < 50% | < 50%
9 | COc1ccc(-n2ncc(CN3CC(Nc4nc(N)nc5[nH]ncc45)Cc4ccccc43)c2C)cc1 (stereo not shown) [Compound 157, N4-(1-{[1-(4-methoxyphenyl)-5-methyl-1H-pyrazol-4-yl]methyl}-1,2,3,4-tetrahydroquinolin-3-yl)-1H-pyrazolo[3,4-d]pyrimidine-4,6-diamine] | < 50% | 50 to 79% | < 50% | < 50% | < 50%
10 | COc1cc(CN2CC(Nc3nc(N)nc4[nH]ncc34)Cc3ccccc32)ccc1OCc1ccccc1 (stereo not shown) [Compound 156, N4-{1-[4-(benzyloxy)-3-methoxybenzyl]-1,2,3,4-tetrahydroquinolin-3-yl}-1H-pyrazolo[3,4-d]pyrimidine-4,6-diamine] | 50 to 79% | < 50% | < 50% | < 50% | < 50%
11 | Cc1ccc(S(=O)(=O)N2CC(Nc3nc(N)nc4[nH]ncc34)Cc3ccccc32)cc1 (stereo not shown) [Compound 22, N4-(1-tosyl-1,2,3,4-tetrahydroquinolin-3-yl)-1H-pyrazolo[3,4-d]pyrimidine-4,6-diamine] | < 50% | < 50% | < 50% | < 50% | < 50%
12 | COc1cccc(CC(=O)N2CC(Nc3nc(N)nc4[nH]ncc34)Cc3ccccc32)c1 (stereo not shown) [Compound 101, 1-(3-(6-amino-1H-pyrazolo[3,4-d]pyrimidin-4-ylamino)-3,4-dihydroquinolin-1(2H)-yl)-2-(3-methoxyphenyl)ethanone] | > 79% | < 50% | 50 to 79% | < 50% | < 50%
13 | COc1ccc(-c2cccc(S(=O)(=O)N3CC(Nc4nc(N)nc5[nH]ncc45)Cc4ccccc43)c2)cc1 (stereo not shown) [Compound 63, N4-(1-(4′-methoxybiphenyl-3-ylsulfonyl)-1,2,3,4-tetrahydroquinolin-3-yl)-1H-pyrazolo[3,4-d]pyrimidine-4,6-diamine] | 50 to 79% | > 79% | < 50% | 50 to 79% | 50 to 79%
14 | Nc1nc(NC2Cc3ccccc3N(S(=O)(=O)c3cc(Cl)cc(Cl)c3)C2)c2cn[nH]c2n1 (stereo not shown) [Compound 36, N4-(1-(3,5-dichlorophenylsulfonyl)-1,2,3,4-tetrahydroquinolin-3-yl)-1H-pyrazolo[3,4-d]pyrimidine-4,6-diamine] | < 50% | 50 to 79% | < 50% | < 50% | < 50%
15 | Nc1nc(NC2Cc3ccccc3N(S(=O)(=O)c3ccc(Oc4ccccc4)nc3)C2)c2cn[nH]c2n1 (stereo not shown) [Compound 64, N4-(1-(6-phenoxypyridin-3-ylsulfonyl)-1,2,3,4-tetrahydroquinolin-3-yl)-1H-pyrazolo[3,4-d]pyrimidine-4,6-diamine] | < 50% | < 50% | < 50% | < 50% | < 50%
16 | Nc1nc(NC2Cc3ccccc3N(S(=O)(=O)c3cccc(OC(F)(F)F)c3)C2)c2cn[nH]c2n1 (stereo not shown) [Compound 70, N4-(1-(3-(trifluoromethoxy)phenylsulfonyl)-1,2,3,4-tetrahydroquinolin-3-yl)-1H-pyrazolo[3,4-d]pyrimidine-4,6-diamine] | < 50% | 50 to 79% | < 50% | < 50% | < 50%
17 | Nc1nc(NC2Cc3ccccc3N(S(=O)(=O)c3ccc(C(F)(F)F)cc3)C2)c2cn[nH]c2n1 (stereo not shown) [Compound 44, N4-(1-(4-(trifluoromethyl)phenylsulfonyl)-1,2,3,4-tetrahydroquinolin-3-yl)-1H-pyrazolo[3,4-d]pyrimidine-4,6-diamine] | < 50% | < 50% | < 50% | < 50% | < 50%
18 | CC1(C)CCc2cc(CN3CC(Nc4nc(N)nc5[nH]ncc45)Cc4ccccc43)ccc2O1 (stereo not shown) [Compound 147, N4-{1-[(2,2-dimethyl-3,4-dihydro-2H-chromen-6-yl)methyl]-1,2,3,4-tetrahydroquinolin-3-yl}-1H-pyrazolo[3,4-d]pyrimidine-4,6-diamine] | > 79% | > 79% | 50 to 79% | < 50% | > 79%
19 | Nc1nc(NC2Cc3ccccc3N(S(=O)(=O)c3cccc(NC(=O)Nc4c(F)cccc4C(F)(F)F)c3)C2)c2cn[nH]c2n1 (stereo not shown) [Compound 204, 1-[3-({3-[(6-amino-1H-pyrazolo[3,4-d]pyrimidin-4-yl)amino]-3,4-dihydroquinolin-1(2H)-yl}sulfonyl)phenyl]-3-[2-fluoro-6-(trifluoromethyl)phenyl]urea] | < 50% | < 50% | < 50% | < 50% | 50 to 79%
20 | Nc1nc(NC2Cc3ccccc3N(C(=O)Cc3ccccc3)C2)c2cn[nH]c2n1 (stereo not shown) [Compound 87, 1-(3-(6-amino-1H-pyrazolo[3,4-d]pyrimidin-4-ylamino)-3,4-dihydroquinolin-1(2H)-yl)-2-phenylethanone] | < 50% | < 50% | < 50% | < 50% | < 50%

Source: patent US8273754B2, “Substituted 1H-pyrazolo[3,4-D]pyrimidine-6-amine compounds” (ArQule, Inc., priority 2008, dated 2012)
